Values quoted from earlier work as cited in patent publication US10251409B2, “Mixtures of matter” (SYMRISE AG, priority 2013, dated 2019).

Settings: compared with sugar

For `C=C1C[C@@]23CC[C@H]4[C@@](C)(CCC[C@@]4(C)C(=O)O[C@@H]4O[C@H](CO)[C@@H](O)[C@H](O)[C@H]4O)[C@@H]2CC[C@]1(O[C@@H]1O[C@H](CO)[C@@H](O)[C@H](O[C@@H]2O[C@H](CO)[C@@H](O)[C@H](O)[C@H]2O)[C@H]1O[C@@H]1O[C@H](CO)[C@@H](O)[C@H](O)[C@H]1O)C3` [rebaudioside A], the “Sweetening power relative to sugar” value is listed as “up to 450 times”.
